Experimental findings from patent US20180071367A1, “METHODS OF TREATING COGNITIVE IMPAIRMENTS OR DYSFUNCTION” (Oxeia Biopharmaceuticals, Inc., priority 2015, published 2018) are described below.

Assay [1] addresses GHS-R (Homo sapiens, UniProt Q92847). Kind of assay: GHS-R antagonist activity, cell based assay (Table 3). Particulars: GHS-R antagonist activity in a cell based assay.
In assay [2] the test system is oxidative burst in inflammatory cells. Kind of assay: Oxidative burst (ROS) in inflammatory cells from brain tissue after mild brain injury (controlled cortical impact). The class given is in vivo. Particulars: C57/B6 mice, mild BI by controlled cortical impactor, subcutaneous treatment, leukocytes isolated from brain tissue, DHR 123 flow cytometry, compared to mBI. The protocol: Ghrelin variant administration reduces oxidative burst in inflammatory cells following mild BI. Since no well-accepted animal model exists for concussions, a very small cerebral lesion that closely mimics mild BI is used as a model of mild BI. C57/B6 mice anesthetized with 5% isoflurane in oxygen (1.7 L/min) are given 0.3 mg/kg buprenorphine subcutaneously for analgesia prior to infliction of the mild brain injury. Anesthesia is assessed by paw pinch reflex. After creating a burr hole through the dura with a dental drill, a lesion using a controlled cortical impactor (CCI) is used to create injury 1 mm lateral and posterior to the bregma (5.0 mm/sec at a depth of 1.0 mm).
Animals are separated into three treatment groups: 1) Sham, 2) mild BI, and 3) mild BI plus ghrelin variant. A variety of doses can be tested depending upon the particular ghrelin variant. For example, 1 to 50 μg at one or more time points. As one example, treatment with subcutaneous ghrelin variant: 1 dose of 10 μg following mild BI and additional dose 10 μg 1 hour after. […] The fluorescence is then measured (AFU), higher intensity means greater oxidative burst and, therefore greater concentration or amount of ROS. […] Oxidative burst, which is a marker for ROS, can be measured by respiratory burst using flow cytometry (e.g., FL1 channel with 488-nm laser).

Where no end group is shown, it is not given here. The star is where a group is joined. Octanoyl = CCCCCCCC(=O)*

GHS-R, sequence (Q92847 whole entry): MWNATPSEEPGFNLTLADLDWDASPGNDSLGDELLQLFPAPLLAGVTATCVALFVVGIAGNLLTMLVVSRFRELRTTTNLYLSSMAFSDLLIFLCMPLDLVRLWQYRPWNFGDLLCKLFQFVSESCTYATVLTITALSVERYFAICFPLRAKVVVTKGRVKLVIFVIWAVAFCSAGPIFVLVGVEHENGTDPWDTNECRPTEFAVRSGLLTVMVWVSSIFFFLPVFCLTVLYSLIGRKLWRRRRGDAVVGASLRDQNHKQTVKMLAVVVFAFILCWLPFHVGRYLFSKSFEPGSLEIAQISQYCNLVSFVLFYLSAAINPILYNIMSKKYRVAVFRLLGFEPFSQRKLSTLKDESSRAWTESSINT

In assay [1], `CCN(CC)CCCS(=O)(=O)N[C@H](CCc1ccccc1)c1nc(-c2cncn2C)n[nH]1` [Compound 135] came in with a Ki of under 100 nM.

Regarding “ghrelin (GSS(Octanoyl)FLSPEHQRVQQRKESKKPPAKLQPR)”, the “oxidative burst in inflammatory cells following mBI, quantified by arbitrary fluorescence unit (AFU)” value in assay [2] is given as “reduced the oxidative burst compared to mBI”.
